Experimental data taken from article PMC3725577 (Bioorganic & medicinal chemistry letters, 2011).
“Also recorded” adds a separate entry of the source.

Experiments:
HIV-1 NL4-3 = assay: Single round HIV infectivity in HeLa37 cells; assay type: cell-based
HeLa37 cells = assay: Cell viability; assay type: cell-based; details: concentrations as high as 100 µg/mL

| Compound | anti-HIV activity (in words) (HIV-1 NL4-3) | cytotoxicity (in words) (HeLa37 cells) |
| --- | --- | --- |
| CC(=O)c1c(O)c2c(c(C(C)=O)c1O)OC(C)(C)CC2 [Compound 6, 6,8-diacetyl-2,2-dimethylchroman-5,7-diol] | least active | – |
| CC1(C)CCc2c(O)c(C(=O)CC(=O)c3ccccc3)c(O)c(C=O)c2O1 [Compound 12, 6-(1,3-Dioxo-3-phenylpropyl)-2,2-dimethyl-8-formylchroman-5,7-diol] | good activity | highest cytotoxicity; also recorded: significant cytotoxicity at the higher concentrations tested |
